Assay results: paper PMC12833730, “Discovery of a First‐in‐Class Covalent Allosteric SHP1 Inhibitor with Immunotherapeutic Activity” (Angewandte Chemie (International Ed. in English), 2025)
Entries after “also recorded” stand apart in the source; their conditions may differ.

Key:
[1] = tested on: whole proteome in Jurkat T cells; assay: Chemoproteomic maleimide-biotin competition; type: cell-based, human
Procedure: To further define the selectivity of M029 for SHP1 and assess its cellular target engagement, a chemoproteomic investigation was performed to identify Cys residues protected by M029 from biotin‐tagged maleimide from the whole proteome in Jurkat T cells.^[ [79] ^] Since proteins labeled by M029 will be prevented from capture by the maleimide‐biotin probe, M029‐modified proteins can be readily identified by determining the ratio between the maleimide‐biotin‐bound proteins in the absence and presence of M029. […] The modest observed off‐target reactivity of M029 is not uncommon for targeted covalent inhibitors, including those FDA‐approved covalent drugs targeting EGFR (Osimertinib),^[ [80], [81] ^] BTK (Ibrutinib),^[ [82] ^] and KRAS (Sotorasib),^[ [83] ^] which also modify other proteins in addition to the intended targets. […]
For chemical proteomics studies, Cells were placed in 1 mL urea lysis buffer (100 mM Tris-HCl, pH 8, 8 M urea) and sonicated on ice for three 1-min rounds at 15% amplitude. […] Total protein concentrations were determined using the bicinchoninic acid (BCA) protein assay kit (Thermo Scientific Pierce, Rockford, IL). […]
Mal-biotin labeled peptides were diluted in 1 mL of PBS with 50 μL of High-Capacity NeutrAvidin slurry (Thermo Scientific). […] The peptide samples were analyzed by using an Evosep One LC coupled to a timsTOF HT mass spectrometer (Bruker). […]

[2] = tested on: LCK, PLCγ and ERK1/2 phosphorylation in Jurkat T cells; assay: TCR-LCK signaling immunoblot; type: cell-based; conditions: dose response
Procedure: Supernatants from lysed cells were reduced, treated with iodoacetamide to cap thiol residues, and digested by trypsin for bottom‐up proteomics analysis. […] LCK is the direct substrate of SHP1 and ERK1/2, and PLCγ is the downstream effector protein of LCK‐mediated TCR signaling. […] Statistical analyses were performed with Graphpad Prism software 10.4.2 through the one‐way ANOVA test using Turkey post‐hoc comparison. ****p < 0.0001 was considered significant.
To further confirm M029 cellular target engagement, we investigated the effect of M029 on T cell function. SHP1 plays a negative role in T cells, and deletion of SHP1 in T cells lowers the activation threshold and enhances antitumor immunity.^[ [30], [31], [32], [33] ^] Mechanistically, SHP1 attenuates T cell receptor (TCR) signaling via dephosphorylation of the lymphocyte‐specific protein tyrosine kinase LCK.^[ [31], [84], [85], [86] ^] T cell activation leads to increased expression and secretion of interleukin 2 (IL‐2)^[ [87] ^] while the removal of SHP1 in T cells enhances IL‐2 production, cell proliferation, and cytolysis capacity.^[ [30], [32] ^] Accordingly, we sought to assess the impact of targeting SHP1 with M029 on TCR‐LCK signaling and T cell activation. […] M029 also dose‐dependently promoted IL‐2 production (Figure 4c). […] These findings corroborate that the observed increase in LCK phosphorylation and its downstream signaling indeed resulted from SHP1 inhibition by M029.
Immunoblotting: Cultured cells were lysed with ice-cold lysis buffer (50 mM Tris, pH 8.0, 150 mM NaCl, 10% Glycerol, 1% Triton-X-100) supplied with phosphatase inhibitor (Bimake) and protease inhibitor mixture (Roche Applied Science). Equal amounts of protein were resolved by SDS-PAGE, transferred to a nitrocellulose membrane, and subjected to immunoblotting. […]

`N#Cc1ccsc1NS(=O)(=O)c1ccc(NC(=O)CCl)cc1` [M029, 2-Chloro-N-(4-(N-(3-cyanothiophen-2-yl)sulfamoyl)phenyl)acetamide] was tested, and the “rank of SHP1 (Cys480) among M029-labeled proteins” value ([1]; >2700 peptide fragments identified) was “second most”, the “number of proteins significantly blocked from maleimide modification” value ([1]; cutoff 10-fold, p 0.05) was “five” and the “TCR-mediated phosphorylation of LCK, PLCγ and ERK1/2” value [2] was “upregulation; also recorded: dose dependently increased”.
